Laboratory results: patent publication US20260000676A1, “CHROMAN DERIVATIVES AS ESTROGEN RECEPTOR DEGRADERS” (THE REGENTS OF THE UNIVERSITY OF MICHIGAN, priority 2022, published 2026)

Key:
ER [1] = biological target: T1, ER (Homo sapiens (Human), UniProt P03372); assay: In-cell western (ICW) ER degradation assay in MCF-7 cells; assay type: cell-based; conditions: MCF7, 16 hrs; for DC50: ER degradation; for Dmax: MCF7, maximal ER degradation; for MCF7 Dmax %: maximal ER degradation
CRBN/DDB1 = CRBN/DDB1 (Homo sapiens (Human), UniProt Q96SW2); assay: HTRF binding assay to CRBN/DDB1; conditions: read-out: CRBN HTRF IC50
Experimental: The binding potency was determined using HTRF assay technology (Perkin Elmer). Compounds were serially diluted in DMSO and 0.2 μL volume was transferred to white 384-well plate.

ER [2] = biological target: T1, ER; assay: In-cell western (ICW) ER degradation assay in T47D cells; assay type: cell-based; conditions: 16 hrs; for DC50: ER degradation; for Dmax / T47D Dmax %: maximal ER degradation

T1 sequence (P03372 whole entry): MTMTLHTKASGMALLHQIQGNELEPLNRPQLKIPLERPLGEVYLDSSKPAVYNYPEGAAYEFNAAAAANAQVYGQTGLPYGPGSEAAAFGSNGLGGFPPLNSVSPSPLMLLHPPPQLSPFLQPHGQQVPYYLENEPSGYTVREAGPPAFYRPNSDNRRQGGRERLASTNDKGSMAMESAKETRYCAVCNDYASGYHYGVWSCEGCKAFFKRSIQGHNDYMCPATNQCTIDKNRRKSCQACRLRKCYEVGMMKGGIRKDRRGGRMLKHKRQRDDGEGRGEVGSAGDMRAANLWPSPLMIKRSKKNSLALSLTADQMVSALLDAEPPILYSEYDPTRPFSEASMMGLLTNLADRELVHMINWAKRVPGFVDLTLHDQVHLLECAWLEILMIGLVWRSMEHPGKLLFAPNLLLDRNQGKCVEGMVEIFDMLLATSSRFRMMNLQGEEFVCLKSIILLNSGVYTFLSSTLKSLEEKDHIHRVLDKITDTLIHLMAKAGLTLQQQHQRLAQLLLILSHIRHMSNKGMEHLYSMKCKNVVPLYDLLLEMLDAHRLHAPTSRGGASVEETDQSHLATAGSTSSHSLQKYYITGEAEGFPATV
Sequence of CRBN/DDB1 (Q96SW2 whole entry): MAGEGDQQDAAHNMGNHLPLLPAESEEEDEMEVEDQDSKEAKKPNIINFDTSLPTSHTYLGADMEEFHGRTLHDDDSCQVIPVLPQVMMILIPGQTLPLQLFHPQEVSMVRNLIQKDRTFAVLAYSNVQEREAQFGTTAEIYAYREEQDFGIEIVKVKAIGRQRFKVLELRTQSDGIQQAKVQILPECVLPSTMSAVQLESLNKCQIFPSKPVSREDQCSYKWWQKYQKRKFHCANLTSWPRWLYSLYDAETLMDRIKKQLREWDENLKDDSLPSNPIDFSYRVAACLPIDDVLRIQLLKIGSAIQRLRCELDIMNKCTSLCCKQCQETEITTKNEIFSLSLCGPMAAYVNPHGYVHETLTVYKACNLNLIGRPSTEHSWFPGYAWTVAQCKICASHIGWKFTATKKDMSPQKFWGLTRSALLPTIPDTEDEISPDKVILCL
Sequence of CRBN/DDB1 (Q16531 whole entry partner): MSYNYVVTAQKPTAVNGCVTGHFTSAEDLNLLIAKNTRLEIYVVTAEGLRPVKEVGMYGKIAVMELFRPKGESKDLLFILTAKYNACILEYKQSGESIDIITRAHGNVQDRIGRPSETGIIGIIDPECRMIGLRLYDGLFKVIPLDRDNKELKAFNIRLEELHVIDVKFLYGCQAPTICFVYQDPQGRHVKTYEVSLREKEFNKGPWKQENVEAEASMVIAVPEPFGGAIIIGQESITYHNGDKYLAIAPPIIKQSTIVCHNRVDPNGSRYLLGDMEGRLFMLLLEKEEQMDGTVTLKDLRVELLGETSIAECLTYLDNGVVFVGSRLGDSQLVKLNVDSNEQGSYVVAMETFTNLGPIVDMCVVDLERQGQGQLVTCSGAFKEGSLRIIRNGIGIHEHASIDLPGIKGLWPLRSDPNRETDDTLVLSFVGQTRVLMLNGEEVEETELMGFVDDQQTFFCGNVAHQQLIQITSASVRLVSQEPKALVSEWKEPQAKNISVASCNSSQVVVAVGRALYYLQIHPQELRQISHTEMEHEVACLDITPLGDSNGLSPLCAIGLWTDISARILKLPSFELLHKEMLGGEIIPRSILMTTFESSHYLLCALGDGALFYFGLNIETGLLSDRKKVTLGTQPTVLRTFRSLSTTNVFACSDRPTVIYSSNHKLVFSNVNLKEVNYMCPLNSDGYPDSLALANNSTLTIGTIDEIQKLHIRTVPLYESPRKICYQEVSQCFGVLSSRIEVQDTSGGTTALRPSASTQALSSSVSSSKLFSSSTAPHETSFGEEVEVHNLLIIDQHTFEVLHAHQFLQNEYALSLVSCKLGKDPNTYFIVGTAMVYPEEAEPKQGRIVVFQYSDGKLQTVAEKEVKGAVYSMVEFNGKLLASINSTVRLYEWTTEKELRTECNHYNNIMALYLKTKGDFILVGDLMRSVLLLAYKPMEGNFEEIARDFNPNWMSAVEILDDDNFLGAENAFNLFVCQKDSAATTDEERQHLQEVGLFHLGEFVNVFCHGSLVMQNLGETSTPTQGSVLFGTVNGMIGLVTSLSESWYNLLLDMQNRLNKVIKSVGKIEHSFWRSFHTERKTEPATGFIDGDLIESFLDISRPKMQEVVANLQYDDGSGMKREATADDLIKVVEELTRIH

Row | Structure (SMILES) | DC50 (ER [1]) [nM] | Dmax (ER [1]) [%] | IC50 (CRBN/DDB1) [nM] | DC50 (ER [2]) [nM] | Dmax (ER [2]) [%] | MCF7 Dmax % (ER [1]) | DC50 (ER [1]; given as number) [nM] | T47D Dmax % (ER [2])
1 | COc1cc(N2CCC(CN3CCN(c4cnc(C(=O)NC5CCC(=O)NC5=O)cc4OC)CC3)CC2)ccc1[C@H]1c2ccc(O)cc2OC[C@H]1c1ccccc1 (single isomer, unassigned) [Compound A127] | < 1 | 50 to 75 | > 5000 | < 1 | 25 to 50 | – | – | –
2 | O=C1CCC(NC(=O)c2ccc(N3CCC(CN4CCN(c5ccc([C@H]6c7ccc(O)cc7OC[C@H]6c6ccccc6)cc5)CC4)CC3)cn2)C(=O)N1 (single isomer, unassigned) [Compound A128] | < 1 | – | > 5000 | < 1 | 50 to 75 | B (“B”: >50% and <75%) | – | –
3 | O=C1CC[C@@H](Nc2ccc(C3CCN(CC4CCC5(CC4)CN(c4ccc([C@@H]6c7ccc(O)cc7OC[C@@H]6c6ccccc6)cc4)C5)CC3)cc2)C(=O)N1 (single isomer, unassigned) [Compound A141] | 1 to 10 | 50 to 75 | 50 to 500 | 1 to 10 | 50 to 75 | – | – | –
4 | COc1cc(C(=O)N[C@@H]2CCC(=O)NC2=O)ncc1N1CCN(CC2CCC3(CC2)CN(c2ccc([C@H]4c5ccc(O)cc5OC[C@H]4c4ccccc4)cc2)C3)CC1 (single isomer, unassigned) [Compound A144] | 10 to 100 | 25 to 50 | 500 to 5000 | > 100 | < 25 | – | – | –
5 | O=C1CC[C@H](N2Cc3c(ccc4c3OC[C@H]3CN(C[C@@H]5COC6(CCN(c7ccc([C@@H]8c9ccc(O)cc9OC[C@@H]8c8ccccc8)cc7F)CC6)C5)CCN43)C2=O)C(=O)N1 (single isomer, unassigned) [Compound A157] | < 1 | 50 to 75 | < 50 | < 1 | ≥ 75 | – | – | –
6 | O=C1CC[C@@H](N2Cc3c(ccc4c3OC[C@@H]3CN(CC5COC6(CCN(c7ccc([C@@H]8c9ccc(O)cc9OC[C@@H]8c8ccccc8)cc7F)CC6)C5)CCN43)C2=O)C(=O)N1 (single isomer, unassigned) [Compound A158] | < 1 | – | < 50 | < 1 | – | – | – | –
7 | O=C1CC[C@@H](Nc2ccc(C3CCN(C[C@H]4COC5(CCN(c6ccc([C@@H]7c8ccc(O)cc8OC[C@@H]7c7ccccc7)cc6)CC5)C4)CC3)c(F)c2)C(=O)N1 (single isomer, unassigned) [Compound A163] | < 1 | 25 to 50 | 50 to 500 | < 1 | 50 to 75 | – | – | –
8 | O=C1CC[C@@H](Nc2ccc(C3CCN(C[C@H]4COC5(CCN(c6ccc([C@H]7c8ccc(O)cc8OC[C@H]7c7ccccc7)cc6)CC5)C4)CC3)c(F)c2)C(=O)N1 (single isomer, unassigned) [Compound A164] | < 1 | 25 to 50 | < 50 | 1 to 10 | 50 to 75 | – | – | –
9 | O=C1CC[C@@H](Nc2ccc(C3CCN(C[C@@H]4COC5(CCN(c6ccc([C@@H]7c8ccc(O)cc8OC[C@@H]7c7ccccc7)cc6)CC5)C4)CC3)c(F)c2)C(=O)N1 (single isomer, unassigned) [Compound A165] | – | 25 to 50 | 50 to 500 | < 1 | 50 to 75 | – | 0.31 | –
10 | COc1cc(N2CCC(CN3CCN4c5ccc(C(=O)NC6CCC(=O)NC6=O)nc5OC[C@H]4C3)CC2)ccc1C1c2ccc(O)cc2OCC1c1ccccc1 (stereo in doubt) [Compound A134, (4aR)—N-(2,6-dioxopiperidin-3-yl)-3-((1-(4-((3R,4S)-7-hydroxy-3-phenylchroman-4-yl)-3-methoxyphenyl)piperidin-4-yl)methyl)-1,2,3,4,4a, 5-hexahydropyrazino[1,2-d]pyrido[2,3-b][1,4]oxazine-8-carboxamide] | < 1 | ≥ 75 | 500 to 5000 | < 1 | ≥ 75 | – | – | –
11 | O=C1CCC(Nc2ccc(N3CCN(CC4CC5(CCN(c6ccc([C@@H]7c8ccc(O)cc8OC[C@@H]7c7ccccc7)cc6)CC5)C4)CC3)c(F)c2)C(=O)N1 (stereo partly drawn) [Compound A52, 3-((3-fluoro-4-(4-((7-(4-((3S,4R)-7-hydroxy-3-phenylchroman-4-yl)phenyl)-7-azaspiro[3.5]nonan-2-yl)methyl)piperazin-1-yl)phenyl)amino)piperidine-2,6-dione] | > 100 | < 25 | 50 to 500 | < 1 | 25 to 50 | – | – | –
12 | O=C1CCC(N2Cc3cc4c(cc3C2=O)OC[C@@H]2CN(CC3CCC5(CC3)CN(c3ccc([C@@H]6c7ccc(O)cc7OC[C@@H]6c6ccccc6)cc3)C5)CCN42)C(=O)N1 (stereo partly drawn) [Compound A63, 3-((S)-3-((2-(4-((3S,4R)-7-hydroxy-3-phenylchroman-4-yl)phenyl)-2-azaspiro[3.5]nonan-7-yl)methyl)-8-oxo-1,2,3,4,4a,5,8,10-octahydro-9H-pyrazino[1′,2′:4,5][1,4]oxazino[2,3-f]isoindol-9-yl)piperidine-2,6-dione] | > 100 | – | 500 to 5000 | > 100 | – | D (“D”; <25%) | – | D (“D”; <25%)
13 | COc1cc(N2CCC(CN3CCN4c5cc6c(cc5OC[C@H]4C3)C(=O)N(C3CCC(=O)NC3=O)C6)CC2)ccc1[C@H]1c2ccc(O)cc2OC[C@H]1c1ccccc1 (stereo partly drawn) [Compound A74, 3-((R)-3-((1-(4-((3R,4S)-7-hydroxy-3-phenylchroman-4-yl)-3-methoxyphenyl)piperidin-4-yl)methyl)-8-oxo-1,2,3,4,4a,5,8,10-octahydro-9H-pyrazino[1′,2′:4,5][1,4]oxazino[2,3-f]isoindol-9-yl)piperidine-2,6-dione] | < 1 | < 25 | 500 to 5000 | 1 to 10 | 25 to 50 | – | – | –
14 | O=C1CCC(NC(=O)c2ccc(N3CCN(CC4CC5(CCN(c6ccc([C@@H]7c8ccc(O)cc8OC[C@@H]7c7ccccc7)cc6)CC5)C4)CC3)cn2)C(=O)N1 (stereo partly drawn) [Compound A85, N-(2,6-dioxopiperidin-3-yl)-5-(4-((7-(4-((3S,4R)-7-hydroxy-3-phenylchroman-4-yl)phenyl)-7-azaspiro[3.5]nonan-2-yl)methyl)piperazin-1-yl)picolinamide] | < 1 | 50 to 75 | > 5000 | 1 to 10 | 50 to 75 | – | – | –
15 | O=C1CCC(NC(=O)c2ccc3c(n2)OC[C@H]2CN(CC4CC5(CCN(c6ccc([C@@H]7c8ccc(O)cc8OC[C@@H]7c7ccccc7)cc6)CC5)C4)CCN32)C(=O)N1 (stereo partly drawn) [Compound A93, (4aR)-N-(2,6-dioxopiperidin-3-yl)-3-((7-(4-((3S,4R)-7-hydroxy-3-phenylchroman-4-yl)phenyl)-7-azaspiro[3.5]nonan-2-yl)methyl)-1,2,3,4,4a,5-hexahydropyrazino[1,2-d]pyrido[2,3-b][1,4]oxazine-8-carboxamide] | 1 to 10 | 50 to 75 | 500 to 5000 | < 1 | 50 to 75 | – | – | –
16 | O=C1CCC(NC(=O)c2ccc3c(n2)OC[C@H]2CN(CC4CCN(c5ccc([C@H]6c7ccc(O)cc7OC[C@H]6c6ccccc6)cc5F)CC4)CCN32)C(=O)N1 (stereo partly drawn) [Compound A103, (4aR)-N-(2,6-dioxopiperidin-3-yl)-3-((1-(2-fluoro-4-((3R,4S)-7-hydroxy-3-phenylchroman-4-yl)phenyl)piperidin-4-yl)methyl)-1,2,3,4,4a,5-hexahydropyrazino[1,2-d]pyrido[2,3-b][1,4]oxazine-8-carboxamide] | 1 to 10 | 50 to 75 | 500 to 5000 | 1 to 10 | 50 to 75 | – | – | –
17 | COc1cc(N2CCC(CN3CCN4c5ccc6c(c5OC[C@H]4C3)CN(C3CCC(=O)NC3=O)C6=O)CC2)c(F)cc1[C@H]1c2ccc(O)cc2OC[C@H]1c1ccccc1 (stereo partly drawn) [Compound A105, (R)-3-((S)-7-((1-(2-fluoro-4-((3R,4R)-7-hydroxy-3-phenylchroman-4-yl)-5-methoxyphenyl)piperidin-4-yl)methyl)-1-oxo-1,3,5,5a,6,7,8,9-octahydro-2H-pyrazino[1′,2′:4,5][1,4]oxazino[2,3-e]isoindol-2-yl)piperidine-2,7-dione] | 10 to 100 | 25 to 50 | < 50 | 1 to 10 | 25 to 50 | – | – | –
18 | COc1cc(N2CCC(CN3CCN(c4ccc(C(=O)NC5CCC(=O)NC5=O)nc4)CC3)CC2)c(F)cc1[C@H]1c2ccc(O)cc2OC[C@H]1c1ccccc1 (stereo partly drawn) [Compound A109, N-(2,6-dioxopiperidin-3-yl)-5-(4-((1-(2-fluoro-4-((3R,4R)-7-hydroxy-3-phenylchroman-4-yl)-5-methoxyphenyl)piperidin-4-yl)methyl)piperazin-1-yl)picolinamide] | 10 to 100 | – | > 5000 | 1 to 10 | – | C (“C”: 25%-50%) | – | C (“C”: 25%-50%)
19 | O=C1CCN(c2ccc(N3CCC4(CC3)CC(CN3CCN(c5ccc([C@@H]6c7ccc(O)cc7OC[C@@H]6c6ccccc6)cc5)CC3)C4)cc2)C(=O)N1 [Compound A112, 1-(4-(2-((4-(4-((3S,4R)-7-hydroxy-3-phenylchroman-4-yl)phenyl)piperazin-1-yl)methyl)-7-azaspiro[3.5]nonan-7-yl)phenyl)dihydropyrimidine-2,4(1H,3H)-dione] | > 100 | < 25 | > 5000 | 1 to 10 | < 25 | – | – | –
20 | COc1cc(N2CCC3(CC2)CC(CN2CCN4c5ccc6c(c5OC[C@@H]4C2)CN([C@@H]2CCC(=O)NC2=O)C6=O)C3)c(F)cc1[C@H]1c2ccc(O)cc2OC[C@H]1c1ccccc1 [Compound A126, (R)-3-((S)-7-((7-(2-fluoro-4-((3R,4R)-7-hydroxy-3-phenylchroman-4-yl)-5-methoxyphenyl)-7-azaspiro[3.5]nonan-2-yl)methyl)-1-oxo-1,3,5,5a,6,7,8,9-octahydro-2H-pyrazino[1′,2′:4,5][1,4]oxazino[2,3-e]isoindol-2-yl)piperidine-2,6-dione] | 1 to 10 | 25 to 50 | < 50 | < 1 | 50 to 75 | – | – | –
